Source: ChEMBL document CHEMBL2346573, “Probing the role of the vancomycin e-ring aryl chloride: selective divergent synthesis and evaluation of alternatively substituted E-ring analogues” (2013)
≈ marks a conversion by molar mass, not a printed value.

How the values were obtained:
Enterococcus faecalis [1] = test: Antimicrobial activity against VanB vancomycin-resistant Enterococcus faecalis ATCC 51299 after 24 hrs by microtiter plate assay; format: functional; details: ATCC 51299, 24 h
Staphylococcus aureus [2] = test: Antimicrobial activity against vancomycin-sensitive Staphylococcus aureus ATCC 25923 after 24 hrs by microtiter plate assay; format: functional; details: ATCC 25923, 24 h
[3] = Binding affinity to N,N'-Ac2-L-Lys-D-Ala-D-Ala (unknown origin)
[4] = Ratio of MIC for VanB vancomycin-resistant Enterococcus faecalis ATCC 51299 to MIC for vancomycin-sensitive Staphylococcus aureus ATCC 25923; format: functional
Staphylococcus aureus [5] = test: Antimicrobial activity against Staphylococcus aureus ATCC 25923; format: functional
Enterococcus faecalis [6] = test: Antimicrobial activity against VanA vancomycin-resistant Enterococcus faecalis BM4166; format: functional
Enterococcus faecalis [7] = test: Antimicrobial activity against VanB vancomycin-resistant Enterococcus faecalis ATCC 51299; format: functional

Row | SMILES | MIC (Enterococcus faecalis [1]) | MIC (Staphylococcus aureus [2]) | Ka [3] | Ratio [4] | MIC (Staphylococcus aureus [5]) | MIC (Enterococcus faecalis [6]) | MIC (Enterococcus faecalis [7])
1 | CN[C@H](CC(C)C)C(=O)N[C@H]1C(=O)N[C@@H](CC(N)=O)C(=O)N[C@H]2C(=O)N[C@H]3C(=O)N[C@H](C(=O)N[C@H](C(=O)OC)c4cc(OC)cc(OC)c4-c4cc3ccc4OC)[C@H](O)c3ccc(c(Cl)c3)Oc3cc2cc(c3OC)Oc2ccc(cc2N(C)C)[C@H]1O | 10 µg/mL (≈ 8.18 µM) | 5 µg/mL (≈ 4.09 µM) | 0.34 ×10⁵ /M | – | – | – | –
2 | CN[C@H](CC(C)C)C(=O)N[C@H]1C(=O)N[C@@H](CC(N)=O)C(=O)N[C@H]2C(=O)N[C@H]3C(=O)N[C@H](C(=O)N[C@H](C(=O)OC)c4cc(OC)cc(OC)c4-c4cc3ccc4OC)[C@H](O)c3ccc(c(Cl)c3)Oc3cc2cc(c3OC)Oc2ccc(cc2O)[C@H]1O | 5 µg/mL (≈ 4.18 µM) | 5 µg/mL (≈ 4.18 µM) | 0.88 ×10⁵ /M | 1 | – | – | –
3 | CN[C@H](CC(C)C)C(=O)N[C@H]1C(=O)N[C@@H](CC(N)=O)C(=O)N[C@H]2C(=O)N[C@H]3C(=O)N[C@H](C(=O)N[C@H](C(=O)OC)c4cc(OC)cc(OC)c4-c4cc3ccc4OC)[C@H](O)c3ccc(c(Cl)c3)Oc3cc2cc(c3OC)Oc2ccc(cc2Br)[C@H]1O | 5 µg/mL (≈ 3.97 µM) | 2.5 µg/mL (≈ 1.99 µM) | 1.1 ×10⁵ /M | – | – | – | –
4 | CN[C@H](CC(C)C)C(=O)N[C@H]1C(=O)N[C@@H](CC(N)=O)C(=O)N[C@H]2C(=O)N[C@H]3C(=O)N[C@H](C(=O)N[C@H](C(=O)O)c4cc(O)cc(O)c4-c4cc3ccc4O)[C@H](O)c3ccc(c(Cl)c3)Oc3cc2cc(c3O)Oc2ccc(cc2Cl)[C@H]1O [VANCOMYCIN AGLYCON] | 40 µg/mL (≈ 35 µM) | 1.25 µg/mL (≈ 1.09 µM) | 1.4 ×10⁵ /M | – | 0.8 µg/mL (≈ 0.699 µM) | > 100 µg/mL | > 100 µg/mL
5 | CN[C@H](CC(C)C)C(=O)N[C@H]1C(=O)N[C@@H](CC(N)=O)C(=O)N[C@H]2C(=O)N[C@H]3C(=O)N[C@H](C(=O)N[C@H](C(=O)OC)c4cc(OC)cc(OC)c4-c4cc3ccc4OC)[C@H](O)c3ccc(c(Cl)c3)Oc3cc2cc(c3OC)Oc2ccc(cc2I)[C@H]1O | 10 µg/mL (≈ 7.66 µM) | 2.5 µg/mL (≈ 1.91 µM) | 1.3 ×10⁵ /M | – | – | – | –
6 | CN[C@H](CC(C)C)C(=O)N[C@H]1C(=O)N[C@@H](CC(N)=O)C(=O)N[C@H]2C(=O)N[C@H]3C(=O)N[C@H](C(=O)N[C@H](C(=O)O)c4cc(O)cc(O)c4-c4cc3ccc4O)[C@H](O)c3ccc(c(Cl)c3)Oc3cc2cc(c3O[C@@H]2O[C@H](CO)[C@@H](O)[C@H](O)[C@H]2O[C@H]2C[C@](C)(N)[C@H](O)[C@H](C)O2)Oc2ccc(cc2Cl)[C@H]1O [VANCOMYCIN] | 120 µg/mL (≈ 82.8 µM) | 1.25 µg/mL (≈ 0.863 µM) | – | – | – | > 100 µg/mL | 120 µg/mL (≈ 82.8 µM)
7 | CN[C@H](CC(C)C)C(=O)N[C@H]1C(=O)N[C@@H](CC(N)=O)C(=O)N[C@H]2C(=O)N[C@H]3C(=O)N[C@H](C(=O)N[C@H](C(=O)OC)c4cc(OC)cc(OC)c4-c4cc3ccc4OC)[C@H](O)c3ccc(c(Cl)c3)Oc3cc2cc(c3OC)Oc2ccc(cc2N=[N+]=[N-])[C@H]1O | 5 µg/mL (≈ 4.1 µM) | 1.25 µg/mL (≈ 1.02 µM) | 1.2 ×10⁵ /M | – | – | – | –
8 | CN[C@H](CC(C)C)C(=O)N[C@H]1C(=O)N[C@@H](CC(N)=O)C(=O)N[C@H]2C(=O)N[C@H]3C(=O)N[C@H](C(=O)N[C@H](C(=O)O)c4cc(O)cc(O)c4-c4cc3ccc4O)[C@H](O)c3ccc(c(Cl)c3)Oc3cc2cc(c3O)Oc2ccc(cc2)[C@H]1O | 80 µg/mL (≈ 72.1 µM) | 5 µg/mL (≈ 4.51 µM) | 0.68 ×10⁵ /M | – | – | – | –
9 | CN[C@H](CC(C)C)C(=O)N[C@H]1C(=O)N[C@@H](CC(N)=O)C(=O)N[C@H]2C(=O)N[C@H]3C(=O)N[C@H](C(=O)N[C@H](C(=O)OC)c4cc(OC)cc(OC)c4-c4cc3ccc4OC)[C@H](O)c3ccc(c(Cl)c3)Oc3cc2cc(c3OC)Oc2ccc(cc2[N+](=O)[O-])[C@H]1O | > 40 µg/mL | > 40 µg/mL | 0.097 ×10⁵ /M | – | – | – | –
10 | CN[C@H](CC(C)C)C(=O)N[C@H]1C(=O)N[C@@H](CC(N)=O)C(=O)N[C@H]2C(=O)N[C@H]3C(=O)N[C@H](C(=O)N[C@H](C(=O)O)c4cc(O)cc(O)c4-c4cc3ccc4O)[C@H](O)c3ccc(c(Cl)c3)Oc3cc2cc(c3O)Oc2ccc(cc2Br)[C@H]1O | 40 µg/mL (≈ 33.7 µM) | 2.5 µg/mL (≈ 2.1 µM) | 1.1 ×10⁵ /M | – | – | – | –
11 | COC(=O)[C@H]1NC(=O)[C@H]2NC(=O)[C@H](NC(=O)[C@@H]3NC(=O)[C@H]4NC(=O)[C@@H](Cc5ccc(c(Cl)c5)Oc5cc3cc(c5OC)Oc3ccc(cc3Cl)[C@H]2O)NC(=O)[C@H](N)c2ccc(OC)c(c2)Oc2cc(OC)cc4c2)c2ccc(OC)c(c2)-c2c(OC)cc(OC)cc21 | – | – | – | – | 3.2 µg/mL (≈ 2.47 µM) | > 100 µg/mL | 3.2 µg/mL (≈ 2.47 µM)
12 | CN[C@H](CC(C)C)C(=O)N[C@H]1C(=O)N[C@@H](CC(N)=O)C(=O)N[C@H]2C(=O)N[C@H]3C(=O)N[C@H](C(=O)N[C@H](C(=O)OC)c4cc(OC)cc(OC)c4-c4cc3ccc4OC)[C@H](O)c3ccc(c(Cl)c3)Oc3cc2cc(c3OC)Oc2ccc(cc2Cl)[C@H]1O | 2.5 µg/mL (≈ 2.06 µM) | 1.25 µg/mL (≈ 1.03 µM) | 1.3 ×10⁵ /M | – | 1.25 µg/mL (≈ 1.03 µM) | 50 µg/mL (≈ 41.2 µM) | 2.5 µg/mL (≈ 2.06 µM)
13 | CN[C@H](CC(C)C)C(=O)N[C@H]1C(=O)N[C@@H](CC(N)=O)C(=O)N[C@H]2C(=O)N[C@H]3C(=O)N[C@H](C(=O)N[C@H](C(=O)OC)c4cc(OC)cc(OC)c4-c4cc3ccc4OC)[C@H](O)c3ccc(c(Cl)c3)Oc3cc2cc(c3OC)Oc2ccc(cc2B(O)O)[C@H]1O | 10 µg/mL (≈ 8.17 µM) | 5 µg/mL (≈ 4.09 µM) | 0.23 ×10⁵ /M | – | – | – | –
14 | CN[C@H](CC(C)C)C(=O)N[C@H]1C(=O)N[C@@H](CC(N)=O)C(=O)N[C@H]2C(=O)N[C@H]3C(=O)N[C@H](C(=O)N[C@H](C(=O)OC)c4cc(OC)cc(OC)c4-c4cc3ccc4OC)[C@H](O)c3ccc(c(Cl)c3)Oc3cc2cc(c3OC)Oc2ccc(cc2C(F)(F)F)[C@H]1O | 20 µg/mL (≈ 16 µM) | 2.5 µg/mL (≈ 2 µM) | 1.2 ×10⁵ /M | 8 | – | – | –
15 | CN[C@H](CC(C)C)C(=O)N[C@H]1C(=O)N[C@@H](CC(N)=O)C(=O)N[C@H]2C(=O)N[C@H]3C(=O)N[C@H](C(=O)N[C@H](C(=O)OC)c4cc(OC)cc(OC)c4-c4cc3ccc4OC)[C@H](O)c3ccc(c(Cl)c3)Oc3cc2cc(c3OC)Oc2ccc(cc2OC)[C@H]1O | 5 µg/mL (≈ 4.13 µM) | 2.5 µg/mL (≈ 2.07 µM) | 1.2 ×10⁵ /M | – | – | – | –
16 | N[C@H]1C(=O)N[C@@H]2Cc3ccc(c(Cl)c3)Oc3cc4cc(c3O)Oc3ccc(cc3Cl)[C@@H](O)[C@@H]3NC(=O)[C@H](NC(=O)[C@@H]4NC(=O)[C@@H](NC2=O)c2cc(O)cc(c2)Oc2cc1ccc2O)c1ccc(O)c(c1)-c1c(O)cc(O)cc1[C@@H](C(=O)O)NC3=O [TEICOPLANIN AGLYCON] | – | – | – | – | 1.6 µg/mL (≈ 1.33 µM) | > 100 µg/mL | 25 µg/mL (≈ 20.9 µM)
17 | CN[C@H](CC(C)C)C(=O)N[C@H]1C(=O)N[C@@H](CC(N)=O)C(=O)N[C@H]2C(=O)N[C@H]3C(=O)N[C@H](C(=O)N[C@H](C(=O)OC)c4cc(OC)cc(OC)c4-c4cc3ccc4OC)[C@H](O)c3ccc(c(Cl)c3)Oc3cc2cc(c3OC)Oc2ccc(cc2C(=O)OC)[C@H]1O | 10 µg/mL (≈ 8.08 µM) | 2.5 µg/mL (≈ 2.02 µM) | 1 ×10⁵ /M | – | – | – | –
18 | CN[C@H](CC(C)C)C(=O)N[C@H]1C(=O)N[C@@H](CC(N)=O)C(=O)N[C@H]2C(=O)N[C@H]3C(=O)N[C@H](C(=O)N[C@H](C(=O)OC)c4cc(OC)cc(OC)c4-c4cc3ccc4OC)[C@H](O)c3ccc(c(Cl)c3)Oc3cc2cc(c3OC)Oc2ccc(cc2C)[C@H]1O | 5 µg/mL (≈ 4.19 µM) | 2.5 µg/mL (≈ 2.09 µM) | 1.2 ×10⁵ /M | – | – | – | –
19 | CN[C@H](CC(C)C)C(=O)N[C@H]1C(=O)N[C@@H](CC(N)=O)C(=O)N[C@H]2C(=O)N[C@H]3C(=O)N[C@H](C(=O)N[C@H](C(=O)OC)c4cc(OC)cc(OC)c4-c4cc3ccc4OC)[C@H](O)c3ccc(c(Cl)c3)Oc3cc2cc(c3OC)Oc2ccc(cc2C#N)[C@H]1O | 5 µg/mL (≈ 4.15 µM) | 2.5 µg/mL (≈ 2.08 µM) | 1.1 ×10⁵ /M | – | – | – | –
20 | CN[C@H](CC(C)C)C(=O)N[C@H]1C(=O)N[C@@H](CC(N)=O)C(=O)N[C@H]2C(=O)N[C@H]3C(=O)N[C@H](C(=O)N[C@H](C(=O)O)c4cc(O)cc(O)c4-c4cc3ccc4O)[C@H](O)c3ccc(c(Cl)c3)Oc3cc2cc(c3O)Oc2ccc(cc2O)[C@H]1O | 40 µg/mL (≈ 35.5 µM) | 5 µg/mL (≈ 4.44 µM) | 0.53 ×10⁵ /M | – | – | – | –
21 | CN[C@H](CC(C)C)C(=O)N[C@H]1C(=O)N[C@@H](CC(N)=O)C(=O)N[C@H]2C(=O)N[C@H]3C(=O)N[C@H](C(=O)N[C@H](C(=O)OC)c4cc(OC)cc(OC)c4-c4cc3ccc4OC)[C@H](O)c3ccc(c(Cl)c3)Oc3cc2cc(c3OC)Oc2ccc(cc2)[C@H]1O | 5 µg/mL (≈ 4.24 µM) | 5 µg/mL (≈ 4.24 µM) | 0.71 ×10⁵ /M | 1 | – | – | –
